Assay results taken from paper PMC2909581 (Clinical cancer research : an official journal of the …, 2010).
Where two headings read alike, the source gives them in different places.

Columns and labels:
[1] = clinical; format: in vivo, human; conditions: for Cmax on days 1 and 15 compared: concurrent sorafenib
[2] = Sorafenib and N-oxide metabolite plasma pharmacokinetics; format: in vivo, human
[3] = test system: Hsp90; assay: Western blot of PBMC lysates: Hsp90 levels; format: in vivo, human
[4] = in vivo
[5] = test system: renal cancer; conditions: no prior VEGF inhibitor therapy; cited from earlier work
[6] = test system: Hsp70; assay: Western blot of PBMC lysates: Hsp70 levels; format: in vivo, human
[7] = test system: melanoma; conditions: single agent; cited from earlier work
[8] = test system: kidney cancer; conditions: no prior VEGF inhibitor therapy, single agent; cited from earlier work
[9] = test system: Tumor Hsp90; conditions: cited from earlier work
[10] = Phase I toxicity assessment
[11] = Maximum, Day 1, in combination with tanespimycin
[12] = Maximum, Day −1, sorafenib given alone
[13] = Mean, Day 1, in combination with tanespimycin, steady-state, eleven patients
[14] = Mean, Day −1, sorafenib given alone, steady-state, eleven patients
[15] = Minimum, Day 1, in combination with tanespimycin
[16] = Minimum, Day −1, sorafenib given alone
[17] = number of patients, tanespimycin 300 mg/m^2 (n = 3) + sorafenib
[18] = number of patients, tanespimycin 350 mg/m^2 (n = 7) + sorafenib
[19] = number of patients, tanespimycin 400 mg/m^2 (n = 11) + sorafenib
[20] = number of patients, tanespimycin 450 mg/m^2 (n = 6) + sorafenib

CO[C@H]1/C=C/C=C(\C)C(=O)NC2=CC(=O)C(N)=C(C[C@@H](C)C[C@H](OC)[C@H](O)[C@@H](C)/C=C(\C)[C@@H]1OC(N)=O)C2=O [17-AG]
Cmax on days 1 and 15 compared [1]: similar | Cmax (end of infusion) and AUC versus tanespimycin dose ([1]; in vivo, iv): increased with increasing tanespimycin dose

CNC(=O)c1cc(Oc2ccc(NC(=O)Nc3ccc(Cl)c(C(F)(F)F)c3)cc2)cc[n+]1[O-] [N-oxide sorafenib]
AUClast [2, 11]: 40.5 µM·h | Cmax [2, 11]: 7.3 µM | Tmax [2, 11]: 10.0 h | AUClast [2, 12]: 45.7 µM·h | Cmax [2, 12]: 6.4 µM | Tmax [2, 12]: 10.0 h | AUClast [2, 13]: 16.1 µM·h | Cmax [2, 13]: 2.6 µM | Tmax [2, 13]: 8.5 h | AUClast [2, 14]: 15.5 µM·h | Cmax [2, 14]: 2 µM | AUClast [2, 15]: 5.5 µM·h | Cmax [2, 15]: 0.7 µM | AUClast [2, 16]: 3.2 µM·h | Cmax [2, 16]: 0.5 µM | Tmax [2, 16]: 1.0 h

CNC(=O)c1cc(Oc2ccc(NC(=O)Nc3ccc(Cl)c(C(F)(F)F)c3)cc2)ccn1 [sorafenib]
AUClast [2, 11]: 146.8 µM·h | Cmax [2, 11]: 26.6 µM | Tmax [2, 11]: 10.0 h | AUClast [2, 12]: 181.2 µM·h | Cmax [2, 12]: 22.5 µM | Tmax [2, 12]: 10.0 h | AUClast [2, 15]: 46.7 µM·h | Cmax [2, 15]: 6.6 µM | Tmax [2, 15]: 1.0 h | AUClast [2, 16]: 44.3 µM·h | Cmax [2, 16]: 5.8 µM | Tmax [2, 16]: 1.0 h | AUC ([2]; human, plasma, po): 90.7 µM·h | Tmax ([2]; human, plasma, po, 400 mg): 1 to 10 h | mean steady-state trough levels ([2]; plasma, sorafenib 400 mg twice daily): 8.0 µM | time of chronic treatment until plasma concentration reached the steady-state ([2]; sorafenib 400 mg twice daily): 7 days | effect of coadministration of 17-AAG on systemic exposure ([2]; sorafenib 400 mg twice daily with 17-AAG): did not significantly alter | effect on Hsp90 levels ([3]; sorafenib therapy): not affected | patients requiring dose modifications ([4]; human): 3 patients | patients with treatment interruptions ([4]; human): 5 patients | predominant toxicities attributed [4]: hand-foot syndrome and diarrhea | response rate [5]: 10%

C=CCNC1=C2C[C@@H](C)C[C@H](OC)[C@H](O)[C@@H](C)/C=C(\C)[C@H](OC(N)=O)[C@@H](OC)/C=C\C=C(/C)C(=O)NC(=CC1=O)C2=O [tanespimycin, 17-demethoxy-allylaminogeldanamycin]
Cmax on days 1 and 15 compared [1]: similar | half-life ([1]; human, plasma, iv): 3.6 h | Cmax (end of infusion) and AUC versus tanespimycin dose ([1]; intravenous infusion 300-450 mg/m^2): increased with increasing tanespimycin dose | clearance (Mean ± SD) ([1]; intravenous infusion, range 4.8 to 32.9 L/h/m^2): 15.0 ± 7.9 L/h/m^2 | patient samples with decrease in Hsp90 levels ([3]; after tanespimycin therapy (on sorafenib)): 6 of the 14 | patients with increase in Hsp70 level among those showing clinical benefit ([6]; after tanespimycin therapy): 8 of the 10 | samples with Hsp70 induction ([6]; after treatment with tanespimycin (on sorafenib)): 11 of 14 | response in phase II trial [7]: no objective responses or disease stabilization | response in phase II trial [8]: no objective responses | higher binding affinity of tumor Hsp90 (multi-chaperone complexes) [9]: 100 fold | patients with treatment interruptions ([10]; human, in vivo): 2 patients | recommended phase II dose ([10]; in combination with sorafenib, intravenous, days 1, 8 and 15 every 28 days): 400 mg/m^2 | Diarrhea Grade1 [10, 17]: 1 | Diarrhea Grade2 [10, 17]: 1 | Diarrhea Grade3 [10, 17]: 0 | Diarrhea Grade4 [10, 17]: 0 | Fatigue Grade1 [10, 17]: 3 | Fatigue Grade2 [10, 17]: 0 | Fatigue Grade3 [10, 17]: 0 | Fatigue Grade4 [10, 17]: 0 | Hand-Foot syndrome Grade1 [10, 17]: 1 | Hand-Foot syndrome Grade2 [10, 17]: 0 | Hand-Foot syndrome Grade3 [10, 17]: 0 | Hand-Foot syndrome Grade4 [10, 17]: 0 | Headache Grade1 [10, 17]: 1 | Headache Grade2 [10, 17]: 0 | Headache Grade3 [10, 17]: 0 | Headache Grade4 [10, 17]: 0 | Liver function abnormality Grade1 [10, 17]: 0 | Liver function abnormality Grade2 [10, 17]: 1 | Liver function abnormality Grade3 [10, 17]: 0 | Liver function abnormality Grade4 [10, 17]: 0 | Nausea Grade1 [10, 17]: 1 | Nausea Grade2 [10, 17]: 0 | Nausea Grade3 [10, 17]: 0 | Nausea Grade4 [10, 17]: 0 | Other toxicity Grade1 [10, 17]: 0 | Other toxicity Grade2 [10, 17]: 3 | Other toxicity Grade3 [10, 17]: 0 | Other toxicity Grade4 [10, 17]: 0 | Bleeding Grade1 [10, 18]: 1 | Bleeding Grade2 [10, 18]: 1 | Bleeding Grade3 [10, 18]: 0 | Bleeding Grade4 [10, 18]: 0 | Creatinine Grade1 [10, 18]: 1 | Creatinine Grade2 [10, 18]: 1 | Creatinine Grade3 [10, 18]: 0 | Creatinine Grade4 [10, 18]: 0 | Diarrhea Grade1 [10, 18]: 3 | Diarrhea Grade2 [10, 18]: 1 | Diarrhea Grade3 [10, 18]: 1 | Diarrhea Grade4 [10, 18]: 0 | Emesis Grade1 [10, 18]: 2 | Emesis Grade2 [10, 18]: 3 | Emesis Grade3 [10, 18]: 1 | Emesis Grade4 [10, 18]: 0 | Fatigue Grade1 [10, 18]: 2 | Fatigue Grade2 [10, 18]: 0 | Fatigue Grade3 [10, 18]: 0 | Fatigue Grade4 [10, 18]: 0 | Hand-Foot syndrome Grade1 [10, 18]: 0 | Hand-Foot syndrome Grade2 [10, 18]: 2 | Hand-Foot syndrome Grade3 [10, 18]: 0 | Hand-Foot syndrome Grade4 [10, 18]: 0 | Headache Grade1 [10, 18]: 1 | Headache Grade2 [10, 18]: 1 | Headache Grade3 [10, 18]: 0 | Headache Grade4 [10, 18]: 0 | Hemoglobin Grade1 [10, 18]: 1 | Hemoglobin Grade2 [10, 18]: 0 | Hemoglobin Grade3 [10, 18]: 0 | Hemoglobin Grade4 [10, 18]: 0 | Liver function abnormality Grade1 [10, 18]: 2 | Liver function abnormality Grade2 [10, 18]: 0 | Liver function abnormality Grade3 [10, 18]: 0 | Liver function abnormality Grade4 [10, 18]: 0 | Myalgias Grade1 [10, 18]: 1 | Myalgias Grade2 [10, 18]: 0 | Myalgias Grade3 [10, 18]: 0 | Myalgias Grade4 [10, 18]: 0 | Nausea Grade1 [10, 18]: 3 | Nausea Grade2 [10, 18]: 2 | Nausea Grade3 [10, 18]: 0 | Nausea Grade4 [10, 18]: 0 | Other toxicity Grade1 [10, 18]: 5 | Other toxicity Grade2 [10, 18]: 1 | Other toxicity Grade3 [10, 18]: 1 | Other toxicity Grade4 [10, 18]: 0 | Platelets Grade1 [10, 18]: 1 | Platelets Grade2 [10, 18]: 0 | Platelets Grade3 [10, 18]: 0 | Platelets Grade4 [10, 18]: 0 | Creatinine Grade1 [10, 19]: 0 | Creatinine Grade2 [10, 19]: 1 | Creatinine Grade3 [10, 19]: 0 | Creatinine Grade4 [10, 19]: 0 | Diarrhea Grade1 [10, 19]: 1 | Diarrhea Grade2 [10, 19]: 1 | Diarrhea Grade3 [10, 19]: 0 | Diarrhea Grade4 [10, 19]: 0 | Dyspnea Grade1 [10, 19]: 0 | Dyspnea Grade2 [10, 19]: 0 | Dyspnea Grade3 [10, 19]: 1 | Dyspnea Grade4 [10, 19]: 1 | Emesis Grade2 [10, 19]: 0 | Emesis Grade3 [10, 19]: 0 | Emesis Grade4 [10, 19]: 0 | Fatigue Grade2 [10, 19]: 2 | Fatigue Grade3 [10, 19]: 1 | Fatigue Grade4 [10, 19]: 0 | Hand-Foot syndrome Grade1 [10, 19]: 0 | Hand-Foot syndrome Grade2 [10, 19]: 3 | Hand-Foot syndrome Grade3 [10, 19]: 2 | Hand-Foot syndrome Grade4 [10, 19]: 0 | Headache Grade1 [10, 19]: 1 | Headache Grade2 [10, 19]: 0 | Headache Grade3 [10, 19]: 0 | Headache Grade4 [10, 19]: 0 | Hemoglobin Grade1 [10, 19]: 2 | Hemoglobin Grade2 [10, 19]: 1 | Hemoglobin Grade3 [10, 19]: 0 | Hemoglobin Grade4 [10, 19]: 0 | Infection Grade1 [10, 19]: 0 | Infection Grade2 [10, 19]: 1 | Infection Grade3 [10, 19]: 0 | Infection Grade4 [10, 19]: 0 | Liver function abnormality Grade1 [10, 19]: 1 | Liver function abnormality Grade2 [10, 19]: 0 | Liver function abnormality Grade3 [10, 19]: 0 | Liver function abnormality Grade4 [10, 19]: 0 | Myalgias Grade1 [10, 19]: 1 | Myalgias Grade2 [10, 19]: 0 | Myalgias Grade3 [10, 19]: 0 | Myalgias Grade4 [10, 19]: 0 | Nausea Grade1 [10, 19]: 6 | Nausea Grade2 [10, 19]: 1 | Nausea Grade3 [10, 19]: 1 | Nausea Grade4 [10, 19]: 0 | Neutropenia Grade1 [10, 19]: 0 | Neutropenia Grade2 [10, 19]: 0 | Neutropenia Grade3 [10, 19]: 1 | Neutropenia Grade4 [10, 19]: 0 | Other toxicity Grade1 [10, 19]: 3 | Other toxicity Grade2 [10, 19]: 3 | Other toxicity Grade3 [10, 19]: 2 | Other toxicity Grade4 [10, 19]: 0 | Platelets Grade1 [10, 19]: 2 | Platelets Grade2 [10, 19]: 0 | Platelets Grade3 [10, 19]: 0 | Platelets Grade4 [10, 19]: 0 | Abdominal pain Grade1 [10, 20]: 2 | Abdominal pain Grade2 [10, 20]: 0 | Abdominal pain Grade3 [10, 20]: 1 | Abdominal pain Grade4 [10, 20]: 0 | Diarrhea Grade1 [10, 20]: 2 | Diarrhea Grade2 [10, 20]: 0 | Diarrhea Grade3 [10, 20]: 1 | Diarrhea Grade4 [10, 20]: 0 | Emesis Grade1 [10, 20]: 1 | Emesis Grade2 [10, 20]: 0 | Emesis Grade3 [10, 20]: 0 | Emesis Grade4 [10, 20]: 0 | Fatigue Grade1 [10, 20]: 4 | Fatigue Grade2 [10, 20]: 1 | Fatigue Grade3 [10, 20]: 0 | Fatigue Grade4 [10, 20]: 0 | Hand-Foot syndrome Grade1 [10, 20]: 1 | Hand-Foot syndrome Grade2 [10, 20]: 1 | Hand-Foot syndrome Grade3 [10, 20]: 2 | Hand-Foot syndrome Grade4 [10, 20]: 0 | Headache Grade1 [10, 20]: 2 | Headache Grade2 [10, 20]: 0 | Headache Grade3 [10, 20]: 0 | Headache Grade4 [10, 20]: 0 | Hemoglobin Grade1 [10, 20]: 1 | Hemoglobin Grade2 [10, 20]: 0 | Hemoglobin Grade3 [10, 20]: 0 | Hemoglobin Grade4 [10, 20]: 0 | Hypertension Grade1 [10, 20]: 0 | Hypertension Grade2 [10, 20]: 1 | Hypertension Grade3 [10, 20]: 0 | Hypertension Grade4 [10, 20]: 0 | Infection Grade1 [10, 20]: 0 | Infection Grade2 [10, 20]: 0 | Infection Grade3 [10, 20]: 1 | Infection Grade4 [10, 20]: 0 | Liver function abnormality Grade1 [10, 20]: 0 | Liver function abnormality Grade2 [10, 20]: 0 | Liver function abnormality Grade3 [10, 20]: 0 | Liver function abnormality Grade4 [10, 20]: 1 | Myalgias Grade1 [10, 20]: 1 | Myalgias Grade2 [10, 20]: 0 | Myalgias Grade3 [10, 20]: 0 | Myalgias Grade4 [10, 20]: 0 | Nausea Grade1 [10, 20]: 4 | Nausea Grade2 [10, 20]: 0 | Nausea Grade3 [10, 20]: 0 | Nausea Grade4 [10, 20]: 0 | Other toxicity Grade1 [10, 20]: 3 | Other toxicity Grade2 [10, 20]: 0 | Other toxicity Grade3 [10, 20]: 1 | Other toxicity Grade4 [10, 20]: 0 | Platelets Grade1 [10, 20]: 0 | Platelets Grade2 [10, 20]: 0 | Platelets Grade3 [10, 20]: 1 | Platelets Grade4 [10, 20]: 0 | patients requiring dose modifications ([10]; sorafenib to 400 mg once daily, tanespimycin to one dose level lower): 4 patients
